Data taken from article PMC7435865, “Antinociceptive and Cytotoxic Activity of Opioid Peptides with Hydrazone and Hydrazide Moieties at the C-Terminus” (Molecules, 2020).
Where two headings read alike, the source gives them in different places. Where a SMILES comes first, the peptide text is derived from it. [ ]: non-standard residue; d: D form. The star is where a group is joined. X4 = O=C(NN*)c1cc(C(F)(F)F)cc(C(F)(F)F)c1; X3 = FC(F)(F)c1cc(C=NN*)cc(C(F)(F)F)c1

Experiments:
[1] = system: MOR; conditions: cited from earlier work
[2] = target: T1, µ opioid receptor (MOR) (Rattus norvegicus, UniProt P33535); experiment: competitive radioligand binding, [3H]DAMGO displacement in rat brain homogenate
T1 construct: from tissue; host or cells: rat brain (membrane fractions of homogenate)
Method: (§1) The synthesized compounds were assayed for binding affinity to the μ- and δ-opioid (MOR and DOR, respectively), as well as to the neurokinin-1 receptors (NK1R). The determinations were performed in rat brain homogenates by competitive displacement of selective radioligands. The results are shown in Table 2 as the half-maximal inhibitory concentration (IC50) with the standard error of the mean (SEM).
(§2) The binding affinity of compounds 1b–6a for MOR, DOR, and NK1R was determined in competitive radioligand binding assays according to the method previously described. The specific radioligands were [^3H]DAMGO (DAMGO, [Tyr^1-3,5-^3H])), [^3H][Ile^5,6]DELT II ([Ile^5,6]Deltorphin II, [Tyr^l-3,5-^3H]) and [^3H]Substance P (Substance P, [Leu-3,4,5-^3H]), for experiments with MOR, DOR, and NK1R, respectively. The first two were obtained from Isotope Laboratory, Biological Research Centre, Institute of Biochemistry (Szeged, Hungary), whereas the latter was purchased from Perkin Elmer (Perkin Elmer Inc., Krakow, Poland). Membrane fractions of rat brain homogenate were incubated at 25 °C for 60 min in the presence of radioligands (0.5 nM) specific for each receptor and increasing concentrations of the tested compounds. To measure non-specific binding, 10 μM naloxone was used as the competitor for opioid receptors and 10 μM cold Substance P was used for NK1R. The reactions were carried out in assay buffer containing Tris-HCl (pH 7.4) with an addition of bovine serum albumin (BSA) and protease inhibitors (bacitracin, bestatin, captopril). After the incubation, the binding reactions were terminated by rapid filtration with M-24 Cell Harvester (Brandel/USA) through GF/B Whatman glass fiber strips (presoaked with 0.5% PEI in order to minimize non-specific binding). Radioactivity retained on the filters was measured in MicroBeta LS on a Trilux scintillation counter (PerkinElmer, Santa Clara, CA, USA). The experiments were repeated at least two times in duplicate. The IC50 value for each compound was determined using GraphPad Prism.

[3] = target: T2, δ opioid receptor (DOR) (Rattus norvegicus, UniProt P33533); experiment: competitive radioligand binding, [3H][Ile5,6]Deltorphin II displacement in rat brain homogenate
T2 construct: from tissue; host or cells: rat brain (membrane fractions of homogenate)
Method: as §1, §2

[4] = target: T3, neurokinin-1 receptor (NK1R) (Rattus norvegicus, UniProt P14600); experiment: competitive radioligand binding, [3H]Substance P displacement in rat brain homogenate
T3 construct: from tissue; host or cells: rat brain (membrane fractions of homogenate)
Method: as §1, §2

[5] = system: MeW155 human melanoma cells; experiment: melanoma cell number in culture after incubation with compound; assay type: cell-based; conditions: 50 µM, 96 h incubation
Method: The determination was performed by counting the cells of the MeW155 cell line after incubating them with 50 µM of the tested compounds.
The cells were plated in 24-well plates (5000 cells per well) and incubated for 24 h in Eagle’s medium containing 10% fetal bovine serum and 1% solution of penicillin and streptomycin. […] Control cells were treated with 1% DMSO only. After 96 h of incubation, the cell suspension was first lysed in lysis buffer (ReagentA, ChemoMetec A/S) and then stabilized in stabilization buffer (ReagentB, ChemoMetec A/S). The number of […] was quantified in a propidium iodide cassette with the use of a NucleoCounter® NC-100™ (ChemoMetec A/S) cell counter. The tests were performed in triplicate. The results were normalized so that the values obtained for the control were 100%.

[6] = system: male Wistar rats; experiment: tail flick test after intrathecal administration; assay type: in vivo, rat; conditions: for ED50 ± SEM: tail flick, i.t., n = 4–8
Method: Analgesic activity of compounds 1b–1d was measured in the tail flick test after intrathecal administration to rats, according to a procedure thoroughly described before. First, adult male Wistar rats weighing 200–250 g were prepared for intrathecal administration by the catherization method described previously by Yaksh and Rudy. Each experimental group consisted of 4–8 rats. Next, spinally mediated analgesia was assessed in the tail flick test utilizing the Plantar Test and Tail Flick Analgesia Meter apparatus (IITC Life Science Inc., Los Angeles, CA, USA). Withdrawal latency was measured in triplicate. The cut-off latencies were set at 7 s to avoid burns. The measurements were performed before the administration of the tested compound (time 0) and 5, 15, 30, 60, and 120 min after injection. The control group received injections of 0.9% NaCl. Data from in vivo studies are presented as means ± SEM and were analyzed using two-way repeated measures of ANOVA followed by Dunnett-corrected multiple comparisons. Significance was defined as * p < 0.033, ** p < 0.002, *** p < 0.001. Data were analyzed using GraphPad Prism. The responses were expressed as a percentage of a maximum possible effect (%MPE), calculated as ((T1 − T0)/(T2 − T0)) × 100, where T0 and T1 are latencies before and after drug injection, respectively, and T2 is the cut-off time. All experimental procedures were approved by The Local Committee for Ethics in Animal Experiments, permission no. 46/2013.

[7] = 0.5 nmol/rat i.t., 15 min after injection

T3 sequence (P14600 whole entry): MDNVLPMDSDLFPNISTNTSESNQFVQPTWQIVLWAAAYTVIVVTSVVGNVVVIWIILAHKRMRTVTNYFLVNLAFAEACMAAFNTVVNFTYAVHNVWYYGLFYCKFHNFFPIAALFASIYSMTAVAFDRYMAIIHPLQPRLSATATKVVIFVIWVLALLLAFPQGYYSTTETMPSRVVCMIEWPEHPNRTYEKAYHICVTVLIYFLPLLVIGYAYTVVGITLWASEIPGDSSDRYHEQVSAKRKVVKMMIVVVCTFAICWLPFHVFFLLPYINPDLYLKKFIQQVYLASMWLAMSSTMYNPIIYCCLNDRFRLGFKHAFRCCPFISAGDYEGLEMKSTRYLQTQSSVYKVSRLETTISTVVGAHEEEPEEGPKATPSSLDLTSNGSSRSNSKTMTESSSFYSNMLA
T1 sequence (P33535 whole entry): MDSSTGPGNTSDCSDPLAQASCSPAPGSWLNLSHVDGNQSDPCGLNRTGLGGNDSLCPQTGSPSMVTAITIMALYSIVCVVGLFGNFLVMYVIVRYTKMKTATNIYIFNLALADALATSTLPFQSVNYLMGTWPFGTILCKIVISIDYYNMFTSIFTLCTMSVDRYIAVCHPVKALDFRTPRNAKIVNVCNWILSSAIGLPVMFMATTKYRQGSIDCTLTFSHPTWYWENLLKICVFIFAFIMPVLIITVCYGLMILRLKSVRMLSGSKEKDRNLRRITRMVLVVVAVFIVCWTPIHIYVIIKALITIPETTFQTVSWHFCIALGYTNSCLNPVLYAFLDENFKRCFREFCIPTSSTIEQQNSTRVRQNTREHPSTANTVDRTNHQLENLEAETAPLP
T2 sequence (P33533 whole entry): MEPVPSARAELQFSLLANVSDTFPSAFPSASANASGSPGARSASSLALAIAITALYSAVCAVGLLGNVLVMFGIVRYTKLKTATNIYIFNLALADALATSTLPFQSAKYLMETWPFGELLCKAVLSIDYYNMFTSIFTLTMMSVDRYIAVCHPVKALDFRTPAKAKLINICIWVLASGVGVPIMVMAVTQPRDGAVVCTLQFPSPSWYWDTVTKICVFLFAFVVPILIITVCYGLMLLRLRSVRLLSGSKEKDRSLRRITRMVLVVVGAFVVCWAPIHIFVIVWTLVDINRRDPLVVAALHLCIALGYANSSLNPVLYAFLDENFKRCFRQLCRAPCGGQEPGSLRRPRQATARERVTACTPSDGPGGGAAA

Compound | IC50 [2] [nM] | IC50 [3] [nM] | DOR binding (in words) ([3]; rat brain homogenate) | IC50 [4] [nM] | effect on number of melanoma cells (in words) [5] | number of MeW155 cells, % of the control value [5] | other results
H-Tyr-D-Ala-Trp-Cyn | – | – | – | – | – | – | IC50 [1]: 77.6 nM
C[C@@H](NC(=O)[C@@H](N)Cc1ccc(O)cc1)C(=O)N[C@@H](Cc1ccccc1)C(=O)N[C@@H](Cc1ccccc1)C(=O)NNC(=O)c1cc(C(F)(F)F)cc(C(F)(F)F)c1 [3b, H-Tyr-D-Ala-Phe-Phe-NH-NH-C(=O)-3,5-(CF3)2Ph] (H-Y[dA]FF-X4) | 391 ± 57.9 | > 1000 | do not exhibit any appreciable DOR binding | > 1000 | no effect | – | –
C[C@@H](NC(=O)[C@@H](N)Cc1ccc(O)cc1)C(=O)N[C@@H](Cc1ccccc1)C(=O)N[C@@H](Cc1ccccc1)C(=O)NN=Cc1cc(C(F)(F)F)cc(C(F)(F)F)c1 [3a, H-Tyr-D-Ala-Phe-Phe-NH-N=CH-3,5-(CF3)2Ph] (H-Y[dA]FF-X3) | 90.4 ± 9.91 | > 1000 | do not exhibit any appreciable DOR binding | 723 ± 58.2 | significantly decrease the number of melanoma cells | ~ 2 % of the control | –
N[C@@H](Cc1ccc(O)cc1)C(=O)N1CCC[C@H]1C(=O)N[C@@H](Cc1ccccc1)C(=O)NN=Cc1cc(C(F)(F)F)cc(C(F)(F)F)c1 [6a, H-Tyr-Pro-Phe-NH-N=CH-3,5-(CF3)2Ph] | 113 ± 7 | > 1000 | do not exhibit any appreciable DOR binding | > 1000 | significantly decrease the number of melanoma cells | 53 ± 3 % of the control | –
C[C@@H](NC(=O)[C@@H](N)Cc1ccc(O)cc1)C(=O)NCC(=O)N[C@@H](Cc1ccccc1)C(=O)NNC(=O)Cc1cc(C(F)(F)F)cc(C(F)(F)F)c1 [1c, H-Tyr-D-Ala-Gly-Phe-NH-NH-C(=O)-CH2-3,5-(CF3)2Ph] | 5.25 ± 1.14 | 162 ± 8.75 | – | > 1000 | no effect | – | area under the time course curve (AUC) of analgesic effect ([6]; 0.5 nmol/rat i.t.): 1417 ± 730.1 units; antinociceptive effect, % of maximal possible effect [6, 7]: 31 ± 6 % MPE; antinociceptive effect, % of maximal possible effect ([6]; 1 nmol/rat i.t., 15 min): 85 ± 7 % MPE; ED50 ± SEM [6]: 0.56 ± 0.04 nmol/rat
N[C@@H](Cc1ccc(O)cc1)C(=O)N1CCC[C@H]1C(=O)N[C@@H](Cc1ccccc1)C(=O)N[C@@H](Cc1ccccc1)C(=O)NN=Cc1cc(C(F)(F)F)cc(C(F)(F)F)c1 [5a, H-Tyr-Pro-Phe-Phe-NH-N=CH-3,5-(CF3)2Ph] | 28.5 ± 9.41 | > 1000 | do not exhibit any appreciable DOR binding | > 1000 | significantly decrease the number of melanoma cells | ~ 2 % of the control | –
C[C@@H](NC(=O)[C@@H](N)Cc1ccc(O)cc1)C(=O)N[C@@H](Cc1c[nH]c2ccccc12)C(=O)NNC(=O)c1cc(C(F)(F)F)cc(C(F)(F)F)c1 [4b, H-Tyr-D-Ala-Trp-NH-NH-C(=O)-3,5-(CF3)2Ph] | – | – | – | – | no effect | – | IC50 ([2]; rat brain homogenate, [3H]DAMGO 0.5 nM, read-out: MOR IC50 ± SEM): > 1000 nM; IC50 ([3]; rat brain homogenate, [3H][Ile5,6]DELT II 0.5 nM, read-out: DOR IC50 ± SEM): > 1000 nM; IC50 ([4]; rat brain homogenate, [3H]Substance P 0.5 nM, read-out: NK1R IC50 ± SEM): > 1000 nM
C[C@@H](NC(=O)[C@@H](N)Cc1ccc(O)cc1)C(=O)NCC(=O)N[C@@H](Cc1ccccc1)C(=O)NNC(=O)c1cc(C(F)(F)F)cc(C(F)(F)F)c1 [1b, H-Tyr-D-Ala-Gly-Phe-NH-NH-C(=O)-3,5-(CF3)2Ph] | 111 ± 12.7 | 413 ± 105 | – | > 1000 | no effect | – | area under the time course curve (AUC) of analgesic effect ([6]; 0.5 nmol/rat i.t.): 3421 ± 673 units; antinociceptive effect, % of maximal possible effect [6, 7]: 65 ± 6 % MPE
C[C@@H](NC(=O)[C@@H](N)Cc1ccc(O)cc1)C(=O)NCC(=O)N[C@@H](Cc1ccccc1)C(=O)NNC(=O)NN=Cc1cc(C(F)(F)F)cc(C(F)(F)F)c1 [1d, H-Tyr-D-Ala-Gly-Phe-NH-NH-C(=O)-NH-N=CH-3,5-(CF3)2Ph] | 4.73 ± 0.02 | 44 ± 2.75 | – | > 1000 | no effect | – | area under the time course curve (AUC) of analgesic effect ([6]; 0.5 nmol/rat i.t.): 5732 ± 1161 units; antinociceptive effect, % of maximal possible effect [6, 7]: ~ 80 % MPE; antinociceptive effect, % of maximal possible effect ([6]; 2 nmol/rat i.t., 120 min after administration): 39 ± 10 % MPE; antinociceptive effect, % of maximal possible effect ([6]; 4 nmol/rat i.t., 15 min): 99 ± 7 % MPE; ED50 ± SEM [6]: 0.32 ± 0.04 nmol/rat
C[C@@H](NC(=O)[C@@H](N)Cc1ccc(O)cc1)C(=O)NCC(=O)N[C@@H](Cc1c[nH]c2ccccc12)C(=O)NN=Cc1cc(C(F)(F)F)cc(C(F)(F)F)c1 [2a, H-Tyr-D-Ala-Gly-Trp-NH-N=CH-3,5-(CF3)2Ph] (H-Y[dA]GW-X3) | 112 ± 16.9 | 914 ± 43.5 | – | > 1000 | significantly decrease the number of melanoma cells | 20 ± 4 % of the control | MOR IC50 ratio 2a and 1a ([2]; ratio of IC50 of hydrazones 2a and 1a): about 10
C[C@@H](O[C@H]1OCCN(Cc2n[nH]c(=O)[nH]2)[C@H]1c1ccc(F)cc1)c1cc(C(F)(F)F)cc(C(F)(F)F)c1 [aprepitant, reference compound] | – | – | – | – | – | 78 ± 4 % of the control | –
C[C@@H](NC(=O)[C@@H](N)Cc1ccc(O)cc1)C(=O)NCC(=O)N[C@@H](Cc1c[nH]c2ccccc12)C(=O)NNC(=O)c1cc(C(F)(F)F)cc(C(F)(F)F)c1 [2b, H-Tyr-D-Ala-Gly-Trp-NH-NH-C(=O)-3,5-(CF3)2Ph] (H-Y[dA]GW-X4) | 93.5 ± 32.8 | 467 ± 36.9 | – | > 1000 | no effect | – | –
C[C@@H](NC(=O)[C@@H](N)Cc1ccc(O)cc1)C(=O)N[C@@H](Cc1c[nH]c2ccccc12)C(=O)NN=Cc1cc(C(F)(F)F)cc(C(F)(F)F)c1 [4a, H-Tyr-D-Ala-Trp-NH-N=CH-3,5-(CF3)2Ph] | 118 ± 40.2 | 621 ± 65.2 | – | > 1000 | significantly decrease the number of melanoma cells | 65 ± 10 % of the control | –
